Biological target: menin protein (Homo sapiens (Human), UniProt O00255)
Assay: biochemical
Type: binding
Details: FP competitive binding; menin protein 4 nM, FAM-MM2 probe 2 nM
Procedure: A fluorescence polarization (FP) competitive binding assay was used to determine the binding affinities of representative menin inhibitors. A FAM labeled fluorescent probe was designed and synthesized based on a MLL1 peptide (FAM-MM2). Equilibrium dissociation constant (Kd) value of FAM-MM2 to menin protein was determined from protein saturation experiments by monitoring the total fluorescence polarization of mixtures composed with the fluorescent probe at a fixed concentration and the protein with increasing concentrations up to full saturation. Serial dilutions of the protein were mixed with FAM-MM2 to a final volume of 200 μl in the assay buffer (PBS with 0.02% Bovine γ-Globulin and 4% DMSO. 0.01% Triton X-100 was added right before assays). Final FAM-MM2 concentration was 2 nM. Plates were incubated at room temperature for 30 minutes with gentle shaking to assure equilibrium.
The IC50, see Table 3, and Ki values of representative Compounds of the Disclosure were determined in a competitive binding experiment. Mixtures of 5 μl of the tested compounds in DMSO and 195 μl of preincubated protein/probe complex solution in the assay buffer were added into assay plates which were incubated at room temperature for 30 minutes with gentle shaking. Final concentration of the menin protein was 4 nM, and final probe concentration is 2 nM. […] FP values were measured as described above. IC50 values were determined by nonlinear regression fitting of the competition curves.

Sequence of menin protein (O00255 whole entry): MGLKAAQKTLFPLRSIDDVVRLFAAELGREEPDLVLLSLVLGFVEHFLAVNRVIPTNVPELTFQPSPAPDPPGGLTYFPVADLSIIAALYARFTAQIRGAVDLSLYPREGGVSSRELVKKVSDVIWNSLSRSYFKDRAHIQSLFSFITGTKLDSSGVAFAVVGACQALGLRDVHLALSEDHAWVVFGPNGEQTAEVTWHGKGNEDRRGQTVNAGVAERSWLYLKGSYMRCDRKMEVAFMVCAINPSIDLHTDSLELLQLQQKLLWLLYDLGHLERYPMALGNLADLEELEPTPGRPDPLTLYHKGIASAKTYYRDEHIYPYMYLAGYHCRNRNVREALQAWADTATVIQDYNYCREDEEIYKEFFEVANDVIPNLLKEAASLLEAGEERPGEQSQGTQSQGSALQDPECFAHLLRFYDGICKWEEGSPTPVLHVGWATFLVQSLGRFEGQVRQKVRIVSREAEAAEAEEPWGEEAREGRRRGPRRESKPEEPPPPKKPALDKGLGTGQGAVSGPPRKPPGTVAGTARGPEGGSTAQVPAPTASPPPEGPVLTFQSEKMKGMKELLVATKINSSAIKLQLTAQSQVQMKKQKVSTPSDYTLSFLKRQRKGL

| Menin Binding Affinity IC50 (μM) | SMILES |
| --- | --- |
| No inhibition | C[C@H](NC(=O)O[C@@H]1CCC[C@H]1[C@@](C#N)(c1ccccc1)C1CCN(CC2CN(c3ccc(S(=O)(=O)c4ccncc4)cc3)C2)CC1)c1ccccc1 [compound 218, (1R,2S)-2-((R)-cyano(phenyl)(1-((1-(4-(pyridin-4-ylsulfonyl)phenyl)azetidin-3-yl)methyl)piperidin-4-yl)methyl)cyclopentyl ((S)-1-phenylethyl)carbamate] |
| No inhibition | N#Cc1ccc(OCCCNc2ccc(C(O)(c3ccccc3)C3CCCC3)cn2)cc1 (centres unmarked) [compound 125, 4-(3-((5-(cyclopentyl(hydroxy)(phenyl)methyl)pyridin-2-yl)amino)propoxy)benzonitrile] |
| No inhibition | CC(=O)O[C@@H]1CCC[C@H]1C(C#N)(c1ccccc1)C1CCN(CC#Cc2ccc(C#N)cc2)CC1 (mixture of isomers) [compound 387, rac-(1R,2S)-2-(cyano(1-(3-(4-cyanophenyl)prop-2-yn-1-yl)piperidin-4-yl)(phenyl)methyl)cyclopentyl acetate] |

Same assay, conditions: FP competitive binding; menin protein 4 nM, FAM-MM2 probe 2 nM; read-out: Menin Binding Affinity IC50

| SMILES | IC50 [µM] |
| --- | --- |
| N#Cc1ccc(OCCCN2CCC(C3(C4CCCC4)NCCc4ccccc43)C2)cc1 (centres unmarked) [compound 108, 4-(3-(3-(1-cyclopentyl-1,2,3,4-tetrahydroisoquinolin-1-yl)pyrrolidin-1-yl)propoxy)benzonitrile] | 56.5 |
| N#Cc1ccc(OCCCN2CCC(C3(CC4CCCCC4)NCCc4ccccc43)CC2)cc1 (centres unmarked) [compound 251, 4-(3-(4-(1-(cyclohexylmethyl)-1,2,3,4-tetrahydroisoquinolin-1-yl)piperidin-1-yl)propoxy)benzonitrile] | 7.1 |
| CN1CCc2ccccc2C1(C1CCCC1)C1CN(CCCCCOc2ccc(C#N)cc2)C1 (centres unmarked) [compound 63, 4-((5-(3-(1-cyclopentyl-2-methyl-1,2,3,4-tetrahydroisoquinolin-1-yl)azetidin-1-yl)pentyl)oxy)benzonitrile] | 6 |
| CC(=O)N1CCC[C@@H]1C(C#N)(c1ccccc1)C1CCN(CCCOc2ccc(C#N)cc2)CC1 (stereo partly drawn) [compound 331, 4-(3-(4-(((R)-1-acetylpyrrolidin-2-yl)(cyano)(phenyl)methyl)piperidin-1-yl)propoxy)benzonitrile] | 23.3 |
| Cc1cc(S(=O)(=O)c2ccc(N3CC(CN4CCC(C5(C6=CCCC6)CN(C)Cc6ccccc65)CC4)C3)cc2)ccn1 (centres unmarked) [compound 205, 4-(cyclopent-1-en-1-yl)-2-methyl-4-(1-((1-(4-((2-methylpyridin-4-yl)sulfonyl)phenyl)azetidin-3-yl)methyl)piperidin-4-yl)-1,2,3,4-tetrahydroisoquinoline] | 0.088 |
| N#Cc1ccc(OCCCN2CC=C(C3(C4CCCC4)NCCc4ccccc43)CC2)cc1 (centres unmarked) [compound 79, 4-(3-(4-(1-cyclopentyl-1,2,3,4-tetrahydroisoquinolin-1-yl)-3,6-dihydropyridin-1(2H)-yl)propoxy)benzonitrile] | 0.7 |
| N#Cc1ccc(OCCCN2CCC(C(C#N)(Cc3ccncc3)c3ccccc3)CC2)cc1 (centres unmarked) [compound 344, 4-(3-(4-(1-cyano-1-phenyl-2-(pyridin-4-yl)ethyl)piperidin-1-yl)propoxy)benzonitrile] | 180 |
| Cc1cc(C#N)ccc1N1CC(CN2CCC(C3(C4CCCC4)NCCc4ccccc43)CC2)C1 (centres unmarked) [compound 138, 4-(3-((4-(1-cyclopentyl-1,2,3,4-tetrahydroisoquinolin-1-yl)piperidin-1-yl)methyl)azetidin-1-yl)-3-methylbenzonitrile] | 0.099 |
| O=S(=O)(c1ccc(N2CC(CN3CCC(C4(C5CCCC5)CN(CCF)Cc5ccccc54)CC3)C2)cc1)C1CC1 (centres unmarked) [compound 47, 4-cyclopentyl-4-(1-((1-(4-(cyclopropylsulfonyl)phenyl)azetidin-3-yl)methyl)piperidin-4-yl)-2-(2-fluoroethyl)-1,2,3,4-tetrahydroisoquinoline] | 0.137 |
| CS(=O)(=O)c1ccc(OCCCN2CCC(C3(C4CCCCC4)NCCc4ccccc43)CC2)cc1 (centres unmarked) [compound 295, 1-cyclohexyl-1-(1-(3-(4-(methylsulfonyl)phenoxy)propyl)piperidin-4-yl)-1,2,3,4-tetrahydroisoquinoline] | 1.9 |

Now from value to molecule:

| IC50 [µM] | SMILES |
| --- | --- |
| 0.331 | N#CC(c1ccccc1)(C1CCN(CC2CN(c3ccc(S(=O)(=O)c4ccccc4)cc3)C2)CC1)[C@@H]1CCC[C@H]1OC(N)=O (mixture of isomers) [compound 224, rac-(1R,2S)-2-(cyano(phenyl)(1-((1-(4-(phenylsulfonyl)phenyl)azetidin-3-yl)methyl)piperidin-4-yl)methyl)cyclopentyl carbamate] |
| 2.7 | CO[C@@H]1CCC[C@H]1C1(C2CCN(CCCOc3ccc(C#N)cc3)CC2)CN(C)Cc2ccccc21 (mixture of isomers) [compound 326, rac-4-(3-(4-(4-((1S,2R)-2-methoxycyclopentyl)-2-methyl-1,2,3,4-tetrahydroisoquinolin-4-yl)piperidin-1-yl)propoxy)benzonitrile] |
| 3.1 | CNC(=O)O[C@@H]1CCC[C@H]1C(C#N)(c1ccccc1)C1CCN(CC2CN(c3ccc(C#N)cc3)C2)CC1 (mixture of isomers) [compound 364, rac-(1R,2S)-2-(cyano(1-((1-(4-cyanophenyl)azetidin-3-yl)methyl)piperidin-4-yl)(phenyl)methyl)cyclopentyl methylcarbamate] |
| 10.4 | COC(=O)N1Cc2ccccc2C(C2CCN(CCCOc3ccc(C#N)cc3)CC2)([C@@H]2CCC[C@H]2OC)C1 (mixture of isomers) [compound 323, methyl rac-4-(1-(3-(4-cyanophenoxy)propyl)piperidin-4-yl)-4-((1S,2R)-2-methoxycyclopentyl)-3,4-dihydroisoquinoline-2(1H)-carboxylate] |
| 23.7 | CS(=O)(=O)c1ccc(N2CC(CN3CCC(C(C#N)(c4ccccc4)[C@H]4CCC[C@H]4S(C)(=O)=O)CC3)C2)cc1 (mixture of isomers) [compound 182, rac-2-((1R,2R)-2-(methylsulfonyl)cyclopentyl)-2-(1-((1-(4-(methylsulfonyl)phenyl)azetidin-3-yl)methyl)piperidin-4-yl)-2-phenylacetonitrile] |
| 2.7 | COC(=O)N[C@@H]1CCC[C@H]1C(C#N)(c1ccccc1)C1CCN(CC2CN(c3ccc(S(=O)(=O)c4ccc(C(=O)O)cc4)cc3)C2)CC1 (mixture of isomers) [compound 352, rac-4-((4-(3-((4-(cyano((1S,2R)-2-((methoxycarbonyl)amino)cyclopentyl)(phenyl)methyl)piperidin-1-yl)methyl)azetidin-1-yl)phenyl)sulfonyl)benzoic acid] |
| 14.4 | CS(=O)(=O)CO[C@H]1CCC[C@@H]1C(C#N)(c1ccccc1)C1CCN(CC2CN(c3ccc(S(=O)(=O)c4ccncc4)cc3)C2)CC1 (mixture of isomers) [compound 253, rac-2-((1R,2S)-2-((methylsulfonyl)methoxy)cyclopentyl)-2-phenyl-2-(1-((1-(4-(pyridin-4-ylsulfonyl)phenyl)azetidin-3-yl)methyl)piperidin-4-yl)acetonitrile] |
| 9 | CCO[C@@H]1CCC[C@H]1C(C#N)(c1ccccc1)C1CCN(CC2CN(c3ccc(S(=O)(=O)c4ccncc4)cc3)C2)CC1 (mixture of isomers) [compound 199, rac-2-((1S,2R)-2-ethoxycyclopentyl)-2-phenyl-2-(1-((1-(4-(pyridin-4-ylsulfonyl)phenyl)azetidin-3-yl)methyl)piperidin-4-yl)acetonitrile] |
| 5.1 | COC(=O)[C@@H]1CCC[C@H]1C(C#N)(c1ccccc1)C1CCN(CC2CN(c3ccc(S(=O)(=O)C4CC4)cc3)C2)CC1 (mixture of isomers) [compound 333, methyl rac-(1R,2R)-2-(cyano(1-((1-(4-(cyclopropylsulfonyl)phenyl)azetidin-3-yl)(phenyl)methyl)cyclopentane-1-carboxylate] |
| 0.555 | CC(=O)N[C@@H]1CCC[C@H]1C(C#N)(c1ccccc1)C1CCN(CC2CN(c3ccc(S(=O)(=O)c4ccncc4)cc3)C2)CC1 (mixture of isomers) [compound 264, rac-N-((1R,2S)-2-(cyano(phenyl)(1-((1-(4-(pyridin-4-ylsulfonyl)phenyl)azetidin-3-yl)methyl)piperidin-4-yl)methyl)cyclopentyl) acetamide] |
| 1 | CC(=O)O[C@@H]1CCC[C@H]1C(C#N)(c1ccccc1)C1CCN(CC2CN(c3ccc(S(=O)(=O)c4ccncc4)cc3)C2)CC1 (mixture of isomers) [compound 186, rac-(1R,2S)-2-(cyano(phenyl)(1-((1-(4-(pyridin-4-ylsulfonyl)phenyl)azetidin-3-yl)methyl)piperidin-4-yl)methyl)cyclopentyl acetate] |
| 0.017 | CC(=O)O[C@@H]1CCC[C@H]1C(C#N)(c1ccccc1)C1CCN(CC2CN(c3ccc(S(=O)(=O)c4ccnc(C)c4)cc3)C2)CC1 (mixture of isomers) [compound 200, rac-(1R,2S)-2-(cyano(1-((1-(4-((2-methylpyridin-4-yl)sulfonyl)phenyl)azetidin-3-yl)methyl)piperidin-4-yl)(phenyl)methyl)cyclopentyl acetate] |
| 9.3 | CC(=O)OC[C@H]1CCC[C@@H]1C(C#N)(c1ccccc1)C1CCN(CC2CN(c3ccc(S(=O)(=O)C4CC4)cc3)C2)CC1 (mixture of isomers) [compound 261, rac-((1S,2S)-2-(cyano(1-((1-(4-(cyclopropylsulfonyl)phenyl)azetidin-3-yl)methyl)piperidin-4-yl)(phenyl)methyl)cyclopentyl) methyl acetate] |

Source: patent US10899738B2 (THE REGENTS OF THE UNIVERSITY OF MICHIGAN, priority 2016, dated 2021)
